The term IC50 denotes the concentration that gives 50% inhibition.

The experiment concerns the target SARS-CoV-2 3CL-protease (Severe acute respiratory syndrome coronavirus 2 (2019-nCoV) (SARS-CoV-2), UniProt P0DTD1). Description: SARS-CoV-2 3C-like (3CL) protease fluorescence assay (FRET). Type of experiment: biochemical. To be noted: recombinant SARS-CoV-2 3CL-protease 10 nM, 30 min preincubation at RT, peptide substrate, run in duplicate; IC50 ranges.
For `C#C[C@@H]1C[C@@]2(CN1C(=O)[C@H](CC(C)(C)F)NC(=O)c1cc3cc(S(C)(=O)=O)ccc3[nH]1)C(=O)Nc1ccccc12` [Compound 1, N—((S)-1-((3R,5′S)-5′-ethynyl-2-oxospiro[indoline-3,3′-pyrrolidin]-1′-yl)-4-fluoro-4-methyl-1-oxopentan-2-yl)-5-(methylsulfonyl)-1H-indole-2-carboxamide], the IC50 fell in the range of 100 to 1000 nM. With `C#C[C@@H]1C[C@@]2(CN1C(=O)[C@H](CC(C)(C)F)NC(=O)c1cc3c(Cl)cccc3[nH]1)C(=O)Nc1ccccc12` [Compound 2, 4-chloro-N—((S)-1-((3R,5′S)-5′-ethynyl-2-oxospiro[indoline-3,3′-pyrrolidin]-1′-yl)-4-fluoro-4-methyl-1-oxopentan-2-yl)-1H-indole-2-carboxamide] the figure was 100 to 1000 nM; with `C#C[C@@H]1C[C@@]2(CN1C(=O)[C@H](CC(C)(C)F)NC(=O)c1cc3cc(Cl)ccc3[nH]1)C(=O)Nc1ccccc12` [Compound 3, 5-chloro-N—((S)-1-((3R,5′S)-5′-ethynyl-2-oxospiro[indoline-3,3′-pyrrolidin]-1′-yl)-4-fluoro-4-methyl-1-oxopentan-2-yl)-1H-indole-2-carboxamide], 100 to 1000 nM. The figure for `C#C[C@@H]1C[C@@]2(CN1C(=O)[C@H](CC(C)(C)F)NC(=O)c1cc3ccc(Cl)cc3[nH]1)C(=O)Nc1ccccc12` [Compound 4, 6-chloro-N—((S)-1-((3R,5′S)-5′-ethynyl-2-oxospiro[indoline-3,3′-pyrrolidin]-1′-yl)-4-fluoro-4-methyl-1-oxopentan-2-yl)-1H-indole-2-carboxamide] is under 100 nM. Take `C#C[C@@H]1C[C@@]2(CN1C(=O)[C@H](CC(C)(C)F)NC(=O)c1cc3cccc(Cl)c3[nH]1)C(=O)Nc1ccccc12` [Compound 5, 7-chloro-N—((S)-1-((3R,5′S)-5′-ethynyl-2-oxospiro[indoline-3,3′-pyrrolidin]-1′-yl)-4-fluoro-4-methyl-1-oxopentan-2-yl)-1H-indole-2-carboxamide]: the IC50 was under 100 nM.

On to `C#C[C@@H]1C[C@@]2(CN1C(=O)[C@H](CC(C)(C)F)NC(=O)c1cc3c(Cl)cc(Cl)cc3[nH]1)C(=O)Nc1ccccc12` [Compound 6, 4,6-dichloro-N—((S)-1-((3R,5′S)-5′-ethynyl-2-oxospiro[indoline-3,3′-pyrrolidin]-1′-yl)-4-fluoro-4-methyl-1-oxopentan-2-yl)-1H-indole-2-carboxamide], for which the IC50 was 100 to 1000 nM. The figure for `C#C[C@@H]1C[C@@]2(CN1C(=O)[C@H](CC(C)(C)F)NC(=O)c1cc3ccc(Cl)c(Cl)c3[nH]1)C(=O)Nc1ccccc12` [Compound 7, 6,7-dichloro-N—((S)-1-((3R,5′S)-5′-ethynyl-2-oxospiro[indoline-3,3′-pyrrolidin]-1′-yl)-4-fluoro-4-methyl-1-oxopentan-2-yl)-1H-indole-2-carboxamide] is under 100 nM; for `C#C[C@@H]1C[C@@]2(CN1C(=O)[C@H](CC(C)(C)F)NC(=O)c1cc3cccc(F)c3[nH]1)C(=O)Nc1ccccc12` [Compound 8, N—((S)-1-((3R,5′S)-5′-ethynyl-2-oxospiro[indoline-3,3′-pyrrolidin]-1′-yl)-4-fluoro-4-methyl-1-oxopentan-2-yl)-7-fluoro-1H-indole-2-carboxamide] it is under 100 nM; for `C#C[C@@H]1C[C@@]2(CN1C(=O)[C@H](CC(C)(C)F)NC(=O)c1cc3ccc(F)cc3[nH]1)C(=O)Nc1ccccc12` [Compound 9, N—((S)-1-((3R,5′S)-5′-ethynyl-2-oxospiro[indoline-3,3′-pyrrolidin]-1′-yl)-4-fluoro-4-methyl-1-oxopentan-2-yl)-6-fluoro-1H-indole-2-carboxamide] it is under 100 nM. With `C#C[C@@H]1C[C@@]2(CN1C(=O)[C@H](CC(C)(C)F)NC(=O)c1cc3c(F)cc(F)cc3[nH]1)C(=O)Nc1ccccc12` [Compound 10, N—((S)-1-((3R,5′S)-5′-ethynyl-2-oxospiro[indoline-3,3′-pyrrolidin]-1′-yl)-4-fluoro-4-methyl-1-oxopentan-2-yl)-4,6-difluoro-1H-indole-2-carboxamide] the figure was 100 to 1000 nM; with `C#C[C@@H]1C[C@@]2(CN1C(=O)[C@H](CC(C)(C)F)NC(=O)c1cc3c(F)ccc(F)c3[nH]1)C(=O)Nc1ccccc12` [Compound 11, N—((S)-1-((3R,5′S)-5′-ethynyl-2-oxospiro[indoline-3,3′-pyrrolidin]-1′-yl)-4-fluoro-4-methyl-1-oxopentan-2-yl)-4,7-difluoro-1H-indole-2-carboxamide], under 100 nM. As for `C#C[C@@H]1C[C@@]2(CN1C(=O)[C@H](CC(C)(C)F)NC(=O)c1cc3cc(F)c(F)c(F)c3[nH]1)C(=O)Nc1ccccc12` [Compound 12, N—((S)-1-((3R,5′S)-5′-ethynyl-2-oxospiro[indoline-3,3′-pyrrolidin]-1′-yl)-4-fluoro-4-methyl-1-oxopentan-2-yl)-5,6,7-trifluoro-1H-indole-2-carboxamide], the IC50 is under 100 nM. `C#C[C@@H]1C[C@@]2(CN1C(=O)[C@H](CC(C)(C)F)NC(=O)c1cc3cccc(C(F)(F)F)c3[nH]1)C(=O)Nc1ccccc12` [Compound 13, N—((S)-1-((3R,5′S)-5′-ethynyl-2-oxospiro[indoline-3,3′-pyrrolidin]-1′-yl)-4-fluoro-4-methyl-1-oxopentan-2-yl)-7-(trifluoromethyl)-1H-indole-2-carboxamide]: the IC50 is under 100 nM.

Take `C#C[C@@H]1C[C@@]2(CN1C(=O)[C@H](CC(C)(C)F)NC(=O)c1cc3cc(C(F)(F)F)ccc3[nH]1)C(=O)Nc1ccccc12` [Compound 14, N—((S)-1-((3R,5′S)-5′-ethynyl-2-oxospiro[indoline-3,3′-pyrrolidin]-1′-yl)-4-fluoro-4-methyl-1-oxopentan-2-yl)-5-(trifluoromethyl)-1H-indole-2-carboxamide]: the IC50 lay within 100 to 1000 nM. The figure for `C#C[C@@H]1C[C@@]2(CN1C(=O)[C@H](CC(C)(C)F)NC(=O)c1cc3cccc(C#N)c3[nH]1)C(=O)Nc1ccccc12` [Compound 15, 7-cyano-N—((S)-1-((3R,5′S)-5′-ethynyl-2-oxospiro[indoline-3,3′-pyrrolidin]-1′-yl)-4-fluoro-4-methyl-1-oxopentan-2-yl)-1H-indole-2-carboxamide] is under 100 nM. On to `C#C[C@@H]1C[C@@]2(CN1C(=O)[C@H](CC(C)(C)F)NC(=O)c1cc3cccnc3[nH]1)C(=O)Nc1ccccc12` [Compound 16, N—((S)-1-((3R,5′S)-5′-ethynyl-2-oxospiro[indoline-3,3′-pyrrolidin]-1′-yl)-4-fluoro-4-methyl-1-oxopentan-2-yl)-1H-pyrrolo[2,3-b]pyridine-2-carboxamide], for which the IC50 was 100 to 1000 nM. The figure for `C#C[C@@H]1C[C@@]2(CN1C(=O)[C@H](CC(C)(C)F)NC(=O)c1cc3cccc(F)c3o1)C(=O)Nc1ccccc12` [Compound 17, N—((S)-1-((3R,5′S)-5′-ethynyl-2-oxospiro[indoline-3,3′-pyrrolidin]-1′-yl)-4-fluoro-4-methyl-1-oxopentan-2-yl)-7-fluorobenzofuran-2-carboxamide] is over 1000 nM; for `C#C[C@@H]1C[C@@]2(CN1C(=O)[C@H](CC(C)(C)F)NC(=O)c1cc3cc(F)ccc3o1)C(=O)Nc1ccccc12` [Compound 18, N—((S)-1-((3R,5′S)-5′-ethynyl-2-oxospiro[indoline-3,3′-pyrrolidin]-1′-yl)-4-fluoro-4-methyl-1-oxopentan-2-yl)-5-fluorobenzofuran-2-carboxamide] it is over 1000 nM; for `C#C[C@@H]1C[C@@]2(CN1C(=O)[C@H](CC(C)(C)F)NC(=O)c1cc(F)c3ncccc3c1)C(=O)Nc1ccccc12` [Compound 19, N—((S)-1-((3R,5′S)-5′-ethynyl-2-oxospiro[indoline-3,3′-pyrrolidin]-1′-yl)-4-fluoro-4-methyl-1-oxopentan-2-yl)-8-fluoroquinoline-6-carboxamide] it is over 1000 nM.

As to `C#C[C@@H]1C[C@@]2(CN1C(=O)[C@H](CC(C)(C)F)NC(=O)c1cccc(OC(F)(F)F)c1)C(=O)Nc1ccccc12` [Compound 20, N—((S)-1-((3R,5′S)-5′-ethynyl-2-oxospiro[indoline-3,3′-pyrrolidin]-1′-yl)-4-fluoro-4-methyl-1-oxopentan-2-yl)-3-(trifluoromethoxy)benzamide], the IC50 lay in the range of 100 to 1000 nM. For `C#C[C@@H]1C[C@@]2(CN1C(=O)[C@H](CC(C)(C)F)NC(=O)c1c(Cl)cccc1Cl)C(=O)Nc1ccccc12` [Compound 21, 2,6-dichloro-N—((S)-1-((3R,5′S)-5′-ethynyl-2-oxospiro[indoline-3,3′-pyrrolidin]-1′-yl)-4-fluoro-4-methyl-1-oxopentan-2-yl)benzamide], the half-maximal inhibitory concentration (IC50) was over 1000 nM.

Source of the values: US11858945B2, “Alkyne-containing antiviral agents” (Enanta Pharmaceuticals, Inc., priority 2021, dated 2024).
